Assay results from the supplement of paper PMC11451515.

Test system: NOMO1
Test: AUC of viability dose-response curve (% viability x log10 dose units); higher = less sensitive
Conditions: 48 h
Procedure, shortened: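 Library compounds in DMSO were applied for 48 h at 37°C at 11 threefold doses (47 μM to 0.79 nM) to medium-adapted leukemia cells in 1536-well plates holding 500 or 1000 cells/well. Luminescence from CellTiter-Glo One was normalised plate by plate against DMSO and cell-free wells. Area under the curve came from trapezoidal integration of a log-logistic fit, after scaling curves that rose above full viability and discarding those that failed quality control. The fit had four parameters and used log10 doses.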

[1] = RPMI 5 mM glucose + 10% dialyzed FBS

| Structure (SMILES) | AUC of viability dose-response curve (HPLM + 10% dialyzed FBS) | AUC of viability dose-response curve (RPMI 5 mM glucose + 10% FBS) | AUC of viability dose-response curve [1] |
| --- | --- | --- | --- |
| CC(C)c1cnn2c(NCc3ccccc3)cc(N[C@@H](CO)[C@H](O)CO)nc12 | 297 | 303 | 302 |
| COc1ccc(Cc2ccc(NC(N)=O)cc2)cc1-c1cccc(Cl)c1 | 472 | 471 | 476 |
| CCN(CC)CC#CCOC(=O)C(O)(c1ccccc1)C1CCCCC1 (stereo unspecified) | 468 | 473 | 465 |
| NC[C@H]1CC[C@H](C(=O)O)CC1 | 455 | 475 | 448 |
| CC(C)(C)C(=O)Oc1ccc2c(c1)nc(NC(=O)c1cccc([N+](=O)[O-])c1)n2CCCO | 461 | 459 | 458 |
| ClC1=C(N\C2=N\CCN2)C3=NSN=C3C=C1 | 434 | 440 | 428 |
| C[C@H](NC(=O)/C(C#N)=C/c1cccc(Br)n1)c1ccccc1 | 348 | 361 | 371 |
| CC1=NN(c2ccc(C)c(C)c2)C(=O)/C1=N/Nc1cccc(-c2cccc(C(=O)O)c2)c1O | 431 | 448 | 428 |
| C[C@H](O)[C@H]1[C@@H]2[C@H](C)C(=C(\N2C1=O)C(O)=O)/S[C@@H]3CN[C@H](CN[S+](N)([O-])=O)C3 | 439 | 443 | 452 |
| CC(C)n1c(/C=C/[C@H](O)C[C@H](O)CC(=O)O)c(-c2ccc(F)cc2)c2ccccc21 | 428 | 457 | 448 |
| CN1[C@@H]2CC[C@H]1CC(OC(=O)c1c[nH]c3ccccc13)C2 (stereo partly specified) | 436 | 459 | 444 |
| CN\1C(=O)/C(=C(\N=C1N2CCCC[S+]2([O-])=O)C(=O)NCC3=CC=C(F)C=C3)O | 441 | 475 | 451 |
